Columns and labels:
Type in all cases: cell-based, human
[1] = tested on: Rh30-Myr-p110δ cells; assay: Akt phosphorylation in isogenic Rh30-Myr-p110 cells (Western blot); conditions: panel of isogenic Rh30-Myr-p110α/β/γ/δ cells, 1 h
From the text: To assess the selectivity of X-370 in the context of an isogenic cellular background, we generated a panel of Rh30 human rhabdomyosarcoma cell lines each of which stably expresses a single myristoylated (Myr)-epitope tagged p110 human class I PI3K catalytic subunit, termed as Rh30-Myr-p110α, Rh30-Myr-p110β, Rh30-Myr-p110γ or Rh30-Myr-p110δ. In these cells, endogenous PI3K is not activated under serum-free culture conditions, whereas the ectopically expressed p110 isoforms are membrane-anchored and constitutively active due to myristoylation at N-terminal. Utilizing this cell panel, isoform-specific PI3K activity can be determined for any given inhibitor[25]. These cells were treated with X-370 and phosphorylated Akt was detected as the readout of PI3K activity. X-370 inhibited phosphorylation of Akt at both Thr308 and Ser473 in a dose-dependent manner in four tested cell lines (Figure 2A). […] Similar property was also observed in CAL-101 (Figure S2).
Cell lysates were probed with indicated antibodies. The IC50 values were calculated based on relative band intensity measured with ImageQuant™ TL (GE Healthcare Life Sciences, Piscataway, NJ) (B). Data shown are mean values from three independent experiments. (C, D, E, F) X-370 blocked stimuli-triggered PI3Kδ activation. MEF cells and THP-1 were starved in serum-free medium for 12 h or 4 h respectively and X-370 were added for an additional 1 h treatment following stimulation of IGF-1 at 100 ng/ml for MEF cells (C), LPA at 10 μM for MEF cells (D), MCP-1 at 100ng/ml for THP-1 (E) and M-CSF at 50 ng/ml for THP-1 (F). Similar results were derived from 3 independent experiments. TEXT PRINTED IN THE PICTURE: (B) X-370: IC50 (μM) in Rh30-Myr-p110s, Akt pT308, PI3Kα: 0.68; IC50 (μM) in Rh30-Myr-p110s, Akt pT308, PI3Kβ: 0.4; IC50 (μM) in Rh30-Myr-p110s, Akt pT308, PI3Kγ: 0.46; IC50 (μM) in Rh30-Myr-p110s, Akt pT308, PI3Kδ: 0.032; IC50 (μM) in Rh30-Myr-p110s, Akt pS473, PI3Kα: 0.53; IC50 (μM) in Rh30-Myr-p110s, Akt pS473, PI3Kβ: 0.29; IC50 (μM) in Rh30-Myr-p110s, Akt pS473, PI3Kγ: 0.23; IC50 (μM) in Rh30-Myr-p110s, Akt pS473, PI3Kδ: 0.02 DOUBTS OF THE COPYIST ABOUT THIS PICTURE: Panel B prints no substance label in the table itself; the label X-370 is taken from the other panels of the same picture, where it is the only substance printed. […]
(§1) Cells were treated as indicated conditions and then subjected to lysate to perform standard Western blot as described previously1. Briefly, whole-cell lysates and SDS-loading buffer diluted cell fractions were analyzed on SDS-PAGE gels. Transfer to nitrocellulose membranes, nonfat milk blocking, probing with indicated primary antibodies and the corresponding HRP-conjugated second antibodies.
(§2) Chemiluminescence were performed and captured using ImageQuant LAS 4000 (GE healthcare Life Sciences, Piscataway, NJ, USA) and band intensity was measure both with ImageQuant™ TL (GE Healthcare Life Sciences) 2. […]
(§3) (also on this page, place not known: PI3Kδ -dependent MEK1/2 - B -cell previously 1. whole -cell SDS -loading SDS -PAGE HRP -conjugated (G E A B Val828 Trp760 Thr750 Met752 Tyr813 affinity pocket specificity pocket hinge Glu826 CAL-101 X-370) […]
(1 picture or pasted object on this page, not shown here) […]
in serum-free medium for 12 h and then incubated with serially diluted CAL -101 for an additional 1 h.
Cell lysates were probed with indicated antibodies. The IC50 values were calculated based on relative band intensity measured with ImageQuant™ TL (GE Healthcare Life Sciences, Piscataway, NJ). Data shown are mean values from three independent experiments.
Table S1: Inhibitory activity of X-370 against protein kinases […]
kinome at 10 μM. The relative kianse activity left in the presence of 10 μM were shown (Mi llipore […]
Kinase activity (% of control) Kinase activity (% of control) Kinase activity (% of control) […]
CDK1/cyclinB 97 Lck activated 89 Ret 125 […]

[2] = tested on: Raji cells; assay: Signaling by Western blot
Experimental: (§4) Raji and SU-DHL-6 cells were treated with X-370 for 1 h (left panel) or treated with 0.5 μM X-370 for indicated times (middle panel). Right panel, Raji cells were incubated in fresh medium following treatment with 0.5 μM X-370 for 1 h. Indicated proteins were detected. (B) Raji-R (the rituximab-resistant derivatives of Raji cells) cells were resistant to X-370. The activity of X-370 on the proliferation of Raji parent and Raji-R cells was determined by CCK-8 assay as described in the methods section. (C) X-370 blocked phosphorylation of Akt but not Erk1/2 in Raji-R cells. Raji-R cells were treated with X-370 for 1h and indicated proteins were detected. Data shown are representative from three independent experiments.
(§5) Figure 5 Inhibition of Erk1/2 phosphorylation by X-370 contributed to its antiproliferative activity (A-C) X-370 inhibited Erk1/2 phosphorylation via PI3K-PDK1-MEK1/2 cascade but not the PI3K-Gab1 positive feedback loop. (A) Raji and SU-DHL-6 cells were exposed to 1 μM X370 for 3 h and protein fraction from cellular membrane was separated using Native Membrane Protein Extraction Kit and probed. WCL: whole cell lysate. (B) Inhibition of PDK1 or MEK1/2 abrogated Erk1/2 phosphorylation. Cells were treated with pharmacological inhibitors of Raf (AZ 628, PLX4032), MEK1/2 (AZD6244), p90RSK (BI-D1870), PI3Kδ (X-370), PDK1 (BX-912), Akt (MK-2206), mTOR (AZD8055) or mTORC1 (Rapamycin) respectively and indicated proteins were detected. (C) X-370 disrupted the association between PDK1 and MEK1/2. Raji cells were treated with 1 μM X370 for 1 h and cell lysates were immunoprecipitated with anti-PDK1 antibody and indicated proteins were detected. WCL: whole cell lysate. (D-F) Inhibition of Erk1/2 phosphorylation was required for the anti-proliferative activity of X-370. (D) Raji cells ectopically expressing a constitutively activated phospho-mimic MEK1 mutant (MEK1 S202D/S204D or MEK DD) were incubated with X-370 or AZD6244 for 1 h and then subjected to Western blot. (E) Raji and Raji MEK DD cells were treated with X-370 for 72 h and cell proliferation was detected by CCK-8 assay. (F) Raji MEK DD cells were treated with X-370 and AZD6244 and cell proliferation was detected by CCK-8 assay. Data were show as mean ± SD of three independent experiments. *: p < 0.05 determined by t-tests at each data point. […]
as §1, §2, §3
(§6) (1 picture or pasted object on this page, not shown here)

[3] = tested on: SU-DHL-6 cells; assay: Signaling by Western blot
Experimental: as §4, §5, §1, §2, §3, §6

[4] = tested on: Raji MEK DD cells; assay: Proliferation of Raji MEK DD cells (CCK-8); conditions: Raji MEK DD; 1 μM, 72 h, CCK-8
Experimental: as §5, with “(C) X-370 disrupted the association between PDK1 and MEK1/2.” left out, “WCL: whole cell lysate. (D-F) Inhibition of Erk1/2 phosphorylation was required for the anti-proliferative activity of X-370. (D) Raji cells ectopically expressing a constitutively activated phospho-mimic MEK1 mutant (MEK1 S202D/S204D or MEK DD) were incubated with X-370 or AZD6244 for 1 h and then subjected to Western blot.” left out
luciferase. Raji cells expressing MEK DD or luciferase were incubated with 1 μM AZD6244 or DMSO control respectively for 72 h, and then cell viability were assessed by CCK-8 reagent. […]

[5] = tested on: Raji MEK DD cells; assay: Erk1/2 phosphorylation in Raji cells expressing MEK DD (Western blot); conditions: 1 h
Experimental: as §5, with “(D-F) Inhibition of Erk1/2 phosphorylation was required for the anti-proliferative activity of X-370. (D) Raji cells ectopically expressing a constitutively activated phospho-mimic MEK1 mutant (MEK1 S202D/S204D or MEK DD) were incubated with X-370 or AZD6244 for 1 h and then subjected to Western blot.” left out

[6] = tested on: Raji cells expressing luciferase; assay: Viability of Raji cells expressing luciferase (CCK-8); conditions: 1 μM, 72 h
Experimental: Cell viability was assessed using Cell Counting Kit (CCK-8, Dojindo, Japan) following the manufacturer's protocol and OD values were measured with a Spectramax M5 plate reader (Molecular Devices, Sunnyvale, CA)[45].
Figure S6: CAL-101 inhibited both Akt and Erk1/2 signaling in Raji and SU-DHL -6 cells. Raji and SU-DHL-6 cells were incubated with CAL-101 for an hour and then collected to perform Western blot, the […]
luciferase. Raji cells expressing MEK DD or luciferase were incubated with 1 μM AZD6244 or DMSO control respectively for 72 h, and then cell viability were assessed by CCK-8 reagent. NS indicated no significance. Data were show as mean + SD of three independent experiments. […]

Row | SMILES | selectivity against PI3Kδ-mediated signaling at cellular level [1] | phosphorylation of Akt and Erk1/2 ([2]; Raji, 1 h) | phosphorylation of Akt and Erk1/2 ([3]; SU-DHL-6, 1 h) | antiproliferative activity alone [4] | phosphorylated Erk1/2, panel of pathway inhibitors ([2]; Raji (Figure 5B)) | phosphorylated Erk1/2, panel of pathway inhibitors ([3]; SU-DHL-6 (Figure 5B)) | Erk1/2 phosphorylation [5] | antiproliferative activity alone [6]
1 | CC[C@H](Nc1ncnc2[nH]cnc12)c1nc2cccc(F)c2c(=O)n1-c1ccccc1 [CAL-101, idelalisib, reference compound] | highly selective | downregulated at low nanomolar concentrations | downregulated at low nanomolar concentrations |  |  |  |  | 
2 | Cn1cnc2c(F)c(Nc3ccc(Br)cc3Cl)c(C(=O)NOCCO)cc21 [AZD6244] |  |  |  | little antiproliferative activity | down-regulated | down-regulated | abolished | little antiproliferative activity

— PMC4279406, “Simultaneous targeting of PI3Kδ and a PI3Kδ-dependent MEK1/2-Erk1/2 pathway for therapy in pediatric B-cell acute lymphoblastic leukemia” (Oncotarget, 2014)
